Reference: ChEMBL document CHEMBL5625223 (Eur J Med Chem, 2023)

Tests used:
Type in all cases: cell-based
Adenosine receptor A1 = biological target: T1, Adenosine receptor A1 (Homo sapiens, UniProt P30542); test: Displacement of […] from human A1AR expressed in Flp-In-T-REx-293 cells assessed as inhibition constant
T1 sequence (P30542 whole entry): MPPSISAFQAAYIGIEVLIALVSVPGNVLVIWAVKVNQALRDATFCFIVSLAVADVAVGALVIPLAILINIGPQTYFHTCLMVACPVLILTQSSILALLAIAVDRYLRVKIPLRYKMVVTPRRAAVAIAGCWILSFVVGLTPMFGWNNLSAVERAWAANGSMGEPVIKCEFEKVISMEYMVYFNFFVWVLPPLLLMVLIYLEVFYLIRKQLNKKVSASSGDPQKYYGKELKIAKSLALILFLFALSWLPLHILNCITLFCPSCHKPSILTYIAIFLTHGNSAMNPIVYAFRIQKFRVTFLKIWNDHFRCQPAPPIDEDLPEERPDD

[1] = biological target: 5-hydroxytryptamine receptor 2A (Homo sapiens, UniProt P28223); test: Displacement of [3H]ketanserin from human 5-HT2A receptor expressed in HEK293 cells at 10 uM incubated for 1 hr relative to control
5-hydroxytryptamine receptor 2A, sequence (P28223 whole entry): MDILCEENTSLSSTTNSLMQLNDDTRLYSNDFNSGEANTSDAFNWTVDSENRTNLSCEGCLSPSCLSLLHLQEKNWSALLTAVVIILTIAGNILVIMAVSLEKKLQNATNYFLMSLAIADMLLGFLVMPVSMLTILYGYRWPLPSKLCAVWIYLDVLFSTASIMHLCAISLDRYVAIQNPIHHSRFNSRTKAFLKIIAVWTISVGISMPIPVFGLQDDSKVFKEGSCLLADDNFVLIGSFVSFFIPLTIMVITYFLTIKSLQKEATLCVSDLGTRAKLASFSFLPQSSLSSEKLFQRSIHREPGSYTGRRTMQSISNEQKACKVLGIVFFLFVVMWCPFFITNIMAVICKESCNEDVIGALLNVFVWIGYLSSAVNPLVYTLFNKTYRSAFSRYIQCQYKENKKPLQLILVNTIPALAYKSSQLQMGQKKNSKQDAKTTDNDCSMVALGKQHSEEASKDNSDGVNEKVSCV

[2] = biological target: Adenosine receptor A2a (Homo sapiens) (UniProt P29274); test: Displacement of […] from human A2AR expressed in HEK cells at 10 uM relative to control
Adenosine receptor A2a (Homo sapiens), sequence (P29274 whole entry): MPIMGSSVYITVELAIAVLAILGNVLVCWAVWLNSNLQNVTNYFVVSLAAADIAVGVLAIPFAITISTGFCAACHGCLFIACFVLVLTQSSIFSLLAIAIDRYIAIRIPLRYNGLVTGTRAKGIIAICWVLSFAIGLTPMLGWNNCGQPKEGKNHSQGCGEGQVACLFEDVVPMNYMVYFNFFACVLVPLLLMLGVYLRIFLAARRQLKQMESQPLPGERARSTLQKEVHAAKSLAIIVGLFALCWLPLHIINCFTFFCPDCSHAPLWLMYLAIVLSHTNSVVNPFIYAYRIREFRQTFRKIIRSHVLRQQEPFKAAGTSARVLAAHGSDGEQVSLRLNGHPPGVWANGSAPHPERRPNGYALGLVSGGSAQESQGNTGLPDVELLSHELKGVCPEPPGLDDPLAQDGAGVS

[3] = biological target: T2, 5-hydroxytryptamine receptor 2C (Homo sapiens, UniProt P28335); test: Displacement of [3H]-Mesulergine from human 5-HT2C expressed in Flp-In-T-REx-293 cells assessed as inhibition constant incubated for 1 hr; conditions: read-out: Ki
T2 sequence (P28335 whole entry): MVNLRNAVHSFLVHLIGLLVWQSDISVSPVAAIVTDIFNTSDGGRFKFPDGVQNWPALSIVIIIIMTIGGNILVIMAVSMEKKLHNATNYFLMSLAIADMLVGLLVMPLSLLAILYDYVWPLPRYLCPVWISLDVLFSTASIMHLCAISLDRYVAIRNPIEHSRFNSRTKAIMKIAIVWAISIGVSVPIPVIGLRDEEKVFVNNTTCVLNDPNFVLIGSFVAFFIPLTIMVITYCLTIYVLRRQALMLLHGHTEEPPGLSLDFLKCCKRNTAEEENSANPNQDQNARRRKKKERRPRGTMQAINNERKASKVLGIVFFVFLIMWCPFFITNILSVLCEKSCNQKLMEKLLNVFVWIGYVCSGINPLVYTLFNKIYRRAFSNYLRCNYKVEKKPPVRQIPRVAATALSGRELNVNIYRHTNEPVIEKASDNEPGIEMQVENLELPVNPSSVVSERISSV

Adenosine receptor A3 = biological target: T3, Adenosine receptor A3 (Homo sapiens, UniProt P0DMS8); test: Displacement of […] from human A3AR expressed in HEK cells assessed as inhibition constant
T3 sequence (P0DMS8 whole entry): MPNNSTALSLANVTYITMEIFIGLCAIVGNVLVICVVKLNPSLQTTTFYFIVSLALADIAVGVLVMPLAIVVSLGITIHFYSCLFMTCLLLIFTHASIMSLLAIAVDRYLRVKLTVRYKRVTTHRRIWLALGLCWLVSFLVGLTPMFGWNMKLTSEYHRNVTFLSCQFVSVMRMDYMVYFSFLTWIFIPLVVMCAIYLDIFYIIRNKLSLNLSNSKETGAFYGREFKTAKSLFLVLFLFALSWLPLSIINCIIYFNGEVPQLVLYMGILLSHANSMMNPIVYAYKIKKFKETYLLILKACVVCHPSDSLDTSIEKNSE

[4] = biological target: T4, 5-hydroxytryptamine receptor 2B (Homo sapiens, UniProt P41595); test: Displacement of [3H]-LSD from human 5-HT2B receptor expressed in HEK cells assessed as inhibition constant incubated for 1 hr
T4 sequence (P41595 whole entry): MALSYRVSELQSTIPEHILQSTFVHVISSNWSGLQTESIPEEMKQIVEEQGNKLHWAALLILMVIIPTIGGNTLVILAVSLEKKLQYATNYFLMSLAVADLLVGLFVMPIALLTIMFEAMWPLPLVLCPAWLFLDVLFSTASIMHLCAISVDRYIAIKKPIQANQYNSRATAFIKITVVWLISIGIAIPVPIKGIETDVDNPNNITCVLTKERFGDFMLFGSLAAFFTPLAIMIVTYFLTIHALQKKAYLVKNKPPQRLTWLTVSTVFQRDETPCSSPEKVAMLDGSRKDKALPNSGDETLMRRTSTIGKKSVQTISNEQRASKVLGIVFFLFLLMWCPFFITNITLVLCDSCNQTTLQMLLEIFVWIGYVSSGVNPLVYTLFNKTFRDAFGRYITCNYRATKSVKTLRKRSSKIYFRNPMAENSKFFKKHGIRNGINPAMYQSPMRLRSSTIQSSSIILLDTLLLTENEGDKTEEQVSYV

[5] = biological target: T5, 5-hydroxytryptamine receptor 2C (Homo sapiens) (UniProt P28335); test: Displacement of [3H]-Mesulergine from human 5-HT2C expressed in Flp-In-T-REx-293 cells at 10 uM incubated for 1 hr relative to control
T5 sequence (whole entry): T2 sequence (P28335 whole entry)

[6] = biological target: T6, Adenosine receptor A3 (Homo sapiens) (UniProt P0DMS8); test: Displacement of […] from human A3AR expressed in HEK cells at 10 uM relative to control
T6 sequence (whole entry): T3 sequence (P0DMS8 whole entry)

[7] = biological target: T4, 5-hydroxytryptamine receptor 2B; test: Displacement of [3H]-LSD from human 5-HT2B receptor expressed in HEK cells at 10 uM incubated for 1 hr relative to control

Row | Structure (SMILES) | Ki (Adenosine receptor A1) [nM] | Activity [1] [%] | Ki [3] [nM] | Ki (Adenosine receptor A3) [nM] | Ki [4] [nM] | Activity [2] [%] | Activity [5] [%] | other results
1 | OC[C@@]12C[C@@H]1[C@@H](n1cnc3c(NC(C4CC4)C4CC4)nc(I)nc31)[C@H](O)[C@@H]2O | 13.4 | 35 | 249 | 7810 |  |  |  | Activity ([2]; filed as agonist): 63%
2 | NC[C@H]1O[C@@H](n2cnc3c(N[C@H](C4CCC4)C4CC4)nc(I)nc32)[C@H](O)[C@@H]1O | 147 | 9 |  |  | 178 | 39 | -1 | Activity ([6]; filed as agonist): 56%
3 | O[C@@H]1[C@H](O)[C@@H]2C[C@@H]2[C@H]1n1cnc2c(NC(C3CCCC3)C3CCCC3)nc(Cl)nc21 |  | 22 |  |  |  | 24 |  | 
4 | OC[C@H]1O[C@@H](n2cnc3c(N[C@H](C4CCC4)C4CC4)nc(I)nc32)[C@H](O)[C@@H]1O | 21.3 | 6 |  |  |  |  | -1 | Activity ([2]; filed as agonist): 72%; Activity ([7]; filed as antagonist): 44%; Activity [6]: 34%
5 | Nc1nc(I)nc2c1ncn2[C@H]1[C@H](O)[C@H](O)[C@]2(CCl)C[C@H]12 | 147 | 0 |  | 390 |  |  | 12 | Activity [7]: 11%
6 | OC[C@@]12C[C@@H]1[C@@H](n1cnc3c(NC(C4CCCCC4)C4CCCCC4)nc(Cl)nc31)[C@H](O)[C@@H]2O |  |  |  | 16600 |  | 7 |  | Activity ([1]; filed as antagonist): 47%
7 | CCCCSC[C@@]12C[C@@H]1[C@@H](n1cnc3c(NC(C4CCCC4)C4CCCC4)nc(Cl)nc31)[C@H](O)[C@@H]2O |  | 22 |  |  | 549 | 8 | 27 | 
8 | CC(C)[C@@H](Nc1nc(I)nc2c1ncn2[C@H]1[C@H](O)[C@H](O)[C@]2(CO)C[C@H]12)C1CC1 | 30.7 | 7 | 904 | 11700 | 81.9 |  |  | Activity ([2]; filed as agonist): 60%
9 | COCCN(CCOC)C(=O)[C@]12C[C@H]1[C@H](n1cnc3c(NC(C4CC4)C4CC4)nc(Cl)nc31)[C@@H](O)[C@H]2O (single isomer, unassigned) |  | 0 |  |  |  | 34 | 38 | Activity [6]: 30%
10 | O[C@H]1[C@H](n2cnc3c(NC(C4CCCCC4)C4CCCCC4)nc(Cl)nc32)[C@H]2C[C@@]2(CCl)[C@H]1O |  |  | 73.5 | 9320 |  | -9 |  | 
11 | COCCN(CCOC)C(=O)[C@]12C[C@H]1[C@H](n1cnc3c(N)nc(Cl)nc31)[C@@H](O)[C@H]2O (single isomer, unassigned) |  | 3 |  |  |  |  | 12 | Activity [7]: 36%; Activity ([6]; filed as agonist): 51%
12 | CSC[C@@]12C[C@@H]1[C@@H](n1cnc3c(NC(C4CC4)C4CC4)nc(Cl)nc31)[C@H](O)[C@@H]2O | 63.2 | 19 | 772 | 932 |  |  |  | 
13 | CSC[C@@]12C[C@@H]1[C@@H](n1cnc3c(NC(C4CC4)C4CC4)nc(I)nc31)[C@H](O)[C@@H]2O | 466 | 16 | 493 |  | 522 |  |  | Activity ([2]; filed as agonist): 40%; Activity ([6]; filed as agonist): 62%
14 | CSC[C@@]12C[C@@H]1[C@@H](n1cnc3c(N)nc(I)nc31)[C@H](O)[C@@H]2O | 1350 | 0 |  | 92.5 |  |  | 12 | Activity [7]: 12%
15 | CCOC(=O)[C@@]12C[C@@H]1[C@@H](n1cnc3c(NC(C4CCCC4)C4CCCC4)nc(Cl)nc31)[C@H](O)[C@@H]2O |  |  | 139 | 9720 | 239 | -22 |  | Activity ([1]; filed as antagonist): 42%
16 | Nc1nc(I)nc2c1ncn2[C@H]1[C@H](O)[C@H](O)[C@]2(CO)C[C@H]12 |  | -27 |  |  |  |  | -38 | Activity [7]: -3%
17 | Ic1nc(N[C@H](C2CCC2)C2CC2)c2nc[nH]c2n1 | 648 | -10 |  |  | 313 |  | 5 | 
18 | O[C@H]1[C@H](n2cnc3c(NC(C4CC4)C4CC4)nc(Cl)nc32)[C@H]2C[C@@]2(CF)[C@H]1O | 5.95 | 14 |  | 3700 |  |  |  | Activity ([2]; filed as agonist): 55%; Activity ([5]; filed as antagonist): 47%
